This data set is described as follows: Dissolving capacity evaluation of peptide chains at 2 mg/mL in solvents. Format: physicochemical. The following applies: for Dissolving capacity, ACN:H2O (1:3): 2 mg/mL in ACN:H2O (1:3) solution in HPLC; for Dissolving capacity, DMF: 2 mg/mL in DMF solution; for Dissolving capacity, DMSO: 2 mg/mL in DMSO solution. On the procedure:
This test evaluated the dissolving capacity of each group of peptide chain at 2 mg/mL in a DMF solution, a DMSO solution, an ACN:H2O (1:3) solution in HPLC, and an LiOH saturated solution, respectively. The poorly soluble polypeptide chain-linker arm-hydrophilic polypeptide chain in embodiments 1 and 2 were taken as Groups 1 and 2, respectively, and a separate poorly soluble polypeptide chain […] (SEQ ID NO: 1) was taken as a control group, as shown in Table 3: […]

[1] abbreviates: listed as ILVLLIII (SEQ ID NO: 1) 4-HMBA-DDDDDEEKEEEE (SEQ ID NO: 2).

On to “ILVLLIII (SEQ ID NO: 1) (Poorly soluble polypeptide) [Group 3, the target peptide, reference compound]”, for which the “Dissolving capacity, ACN:H2O (1:3)” value is on record as “very cloudy with solids precipitating”; the “Dissolving capacity, DMF” value is recorded as “very cloudy with solids precipitating”; the “Dissolving capacity, DMSO” value is “very cloudy with solids precipitating”.
For the sequence “ILVLLIII (SEQ ID NO: 1)-HMBA-DDDDDEEKEEEE (SEQ ID NO: 2) [Group 1]”, under setting [1], the “Dissolving capacity, ACN:H2O (1:3)” value is reported as “clear with no solids precipitating”; the “Dissolving capacity, DMF” value is “clear with no solids precipitating”; the “Dissolving capacity, DMSO” value is “clear with no solids precipitating”.
Regarding “ILVLLIII (SEQ ID NO: 1)-HPA-RRRRREDKKKKK (SEQ ID NO: 3) [Group 2]”, the “Dissolving capacity, ACN:H2O (1:3)” value was “completely dissolved”; the “Dissolving capacity, DMF” value is given as “solids still precipitated”; the “Dissolving capacity, DMSO” value is “solids still precipitated”. Moreover, the “Dissolving capacity, LiOH saturated solution” value (2 mg/mL in LiOH saturated solution, listed as second group) is “obviously not better than that of the first group”.

Source of the values: US10906933B2, “Coupled peptide chain for dissolving poorly soluble polypeptides and application thereof for separation and purification in liquid chromatography” (Spec-Chem Industry Inc., priority 2015, dated 2021).
